In US11286268B1, “EIF4E-inhibiting compounds and methods” (EFFECTOR THERAPEUTICS, INC., priority 2019, dated 2022):
Where two headings read alike, the source gives them in different places.

Target: recombinant eIF4E (Homo sapiens (Human), UniProt P06730)
Assay: Fluorescence polarization competition assay for eIF4E binding potency
In short: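 FP readout; IC50 fit from 8-point, 3-fold series. 75 nM eIF4E + 20 nM ATTO-550-labelled m7GDP probe, Tris pH 7.5/NaCl/DTT/Tween buffer, 1% DMSO final. 30 min RT equilibration, light-protected.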

[1] = fluorescence polarization competition, 75 nM recombinant eIF4E, 20 nM EDA-m7GDP-ATTO-550, IC50 class, read-out: elF4E FP
[2] = inhibition of eIF4E/EDA-m7GDP-ATTO-550 binding by 50%, Table 4B calculated values, read-out: IC50

Sequence of recombinant eIF4E (P06730 whole entry): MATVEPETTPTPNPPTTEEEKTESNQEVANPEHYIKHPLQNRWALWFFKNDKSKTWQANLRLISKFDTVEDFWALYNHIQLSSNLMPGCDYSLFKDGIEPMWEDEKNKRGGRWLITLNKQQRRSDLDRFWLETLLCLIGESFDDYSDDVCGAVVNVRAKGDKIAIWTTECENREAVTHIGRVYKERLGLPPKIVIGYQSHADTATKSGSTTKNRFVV

| SMILES | IC50 [1] [nM] | IC50 [2] [nM] |
| --- | --- | --- |
| Cc1cc(-c2cc(Cl)ccc2OCCn2c(C)nc3cc(Cl)c(N4CCC4(C)C)c(C#N)c3c2=O)c2scc(C(=O)O)c2n1 [compound 918] | < 50 | 4.37 |
| Cc1cc(-c2cc(Cl)ccc2OCCn2c(C)nc3cc(Cl)c(N4CCCC4(C)C)c(C#N)c3c2=O)c2scc(C(=O)O)c2n1 [compound 920] | < 50 | 5.76 |
| CCc1ncc2nc(C)n(CCOc3ccc(Cl)cc3-c3cc(C)nc4c(C(=O)O)csc34)c(=O)c2c1C#N [compound 923] | < 50 | 3.71 |
| Cc1cc(-c2cc(Cl)ccc2OCCn2c(C)nc3c(C)nc(-c4ccccc4C(F)(F)F)c(C#N)c3c2=O)c2scc(C(=O)O)c2n1 [compound 924] | < 50 | 14.3 |
| Cc1cc(-c2cc(Cl)ccc2OCCn2c(C)nc3c(C)nc(-c4cccc(C(F)(F)F)c4)c(C#N)c3c2=O)c2scc(C(=O)O)c2n1 [compound 925] | < 50 | 43.1 |
| Cc1cc(-c2cc(Cl)ccc2OCCn2c(C)nc3cnc(C4CCC(F)(F)C4)c(C#N)c3c2=O)c2scc(C(=O)O)c2n1 (stereo not shown) [compound 930] | < 50 | 6.88 |
| Cc1cc(-c2c(F)cc3nc(C)n(CCOc4ccc(Cl)cc4-c4cc(C)nc5c(C(=O)O)csc45)c(=O)c3c2C#N)cc(C)n1 [compound 932] | < 50 | 17.8 |
| Cc1cc(-c2c(CF)cc3nc(C)n(CCOc4ccc(Cl)cc4-c4cc(C)nc5c(C(=O)O)csc45)c(=O)c3c2C#N)cc(C)n1 [compound 933] | 50 to 1000 | 122 |
| Cc1cc(-c2cc(Cl)ccc2OCCn2c(C)nc3cc(F)c(-c4ccccc4)c(C#N)c3c2=O)c2scc(C(=O)O)c2n1 [compound 935] | < 50 | 19.6 |
| Cc1cc(-c2cc(Cl)ccc2OCCn2c(C)nc3cc(C(F)(F)F)c(-c4scnc4C)nc3c2=O)c2scc(C(=O)O)c2n1 [compound 939] | < 50 | 12.1 |
| Cc1nc2cnc(C3CC3)c(C#N)c2c(=O)n1CCOc1ccc(Cl)cc1Sc1cccc(C(=O)O)n1 [compound 940] | 50 to 1000 | 470 |
| Cc1cc(-c2cc(Cl)ccc2OCCn2c(C)nc3cnc(-c4ccccc4F)c(C#N)c3c2=O)c2scc(C(=O)O)c2n1 [compound 941] | < 50 | 20 |
| Cc1cc(-c2cc(Cl)ccc2OCCn2c(C)nc3cnc(-c4cccc(F)c4)c(C#N)c3c2=O)c2scc(C(=O)O)c2n1 [compound 942] | < 50 | 6.93 |
| Cc1cc(-c2cc(Cl)ccc2OCCn2c(C)nc3cnc(-c4ccc(F)cc4)c(C#N)c3c2=O)c2scc(C(=O)O)c2n1 [compound 943] | < 50 | 14.7 |
| Cc1cc(-c2cc(Cl)ccc2OCCn2c(C)nc3cnc(-c4ccccc4C)c(C#N)c3c2=O)c2scc(C(=O)O)c2n1 [compound 944] | < 50 | 46.2 |
| Cc1ccc(-c2ncc3nc(C)n(CCOc4ccc(Cl)cc4-c4cc(C)nc5c(C(=O)O)csc45)c(=O)c3c2C#N)cc1 [compound 946] | < 50 | 27.7 |
| Cc1cc(-c2cc(Cl)ccc2OCCn2c(C)nc3cnc(-c4ccccc4Cl)c(C#N)c3c2=O)c2scc(C(=O)O)c2n1 [compound 947] | < 50 | 23.7 |

| SMILES | IC50 [1] [nM] | IC50 [2] [nM] |
| --- | --- | --- |
| Cc1cc(-c2cc(Cl)ccc2OCCn2c(C)nc3cnc(-c4cccc(Cl)c4)c(C#N)c3c2=O)c2scc(C(=O)O)c2n1 [compound 948] | < 50 | 18.3 |
| Cc1cc(-c2cc(Cl)ccc2OCCn2c(C)nc3cnc(-c4ccccc4C(F)(F)F)c(C#N)c3c2=O)c2scc(C(=O)O)c2n1 [compound 950] | < 50 | 17.2 |
| Cc1cc(-c2cc(Cl)ccc2OCCn2c(C)nc3cnc(-c4ccc(C(F)(F)F)cc4)c(C#N)c3c2=O)c2scc(C(=O)O)c2n1 [compound 952] | < 50 | 45 |
| Cc1cc(-c2cc(Cl)ccc2OCCn2c(C)nc3cnc(-c4cc(Cl)ccc4C)c(C#N)c3c2=O)c2scc(C(=O)O)c2n1 [compound 953] | < 50 | 13.4 |
| Cc1cc(-c2cc(Cl)ccc2OCCn2c(C)nc3cnc(-c4cc(Cl)ccc4Cl)c(C#N)c3c2=O)c2scc(C(=O)O)c2n1 [compound 954] | < 50 | 8.29 |
| Cc1cc(-c2cc(Cl)ccc2OCCn2c(C)nc3cc(Cl)c(N(C)C(C)(C)C)c(C#N)c3c2=O)c2scc(C(=O)O)c2n1 [compound 955] | < 50 | 10.2 |
| Cc1cc(-c2cc(Cl)ccc2OCCn2c(C)nc3cc(Cl)c(N(C)C4CC4)c(C#N)c3c2=O)c2scc(C(=O)O)c2n1 [compound 957] | < 50 | 5.81 |
| Cc1cc(-c2cc(Cl)ccc2OCCn2c(C)nc3cc(Cl)c(NC4CC4)c(C#N)c3c2=O)c2scc(C(=O)O)c2n1 [compound 958] | < 50 | 13.5 |
| Cc1ccc(N(C)c2c(Cl)cc3nc(C)n(CCOc4ccc(Cl)cc4-c4cc(C)nc5c(C(=O)O)csc45)c(=O)c3c2C#N)cn1 [compound 959] | < 50 | 14.8 |
| Cc1ccc(Nc2c(Cl)cc3nc(C)n(CCOc4ccc(Cl)cc4-c4cc(C)nc5c(C(=O)O)csc45)c(=O)c3c2C#N)cn1 [compound 960] | < 50 | 39.6 |
| Cc1cc(-c2cc(Cl)ccc2OCCn2c(C)nc3cc(Cl)c(N(C)c4cncc(F)c4)c(C#N)c3c2=O)c2scc(C(=O)O)c2n1 [compound 961] | < 50 | 21.1 |
| Cc1cc(-c2cc(Cl)ccc2OCCn2c(C)nc3cc(Cl)c(Nc4cncc(F)c4)c(C#N)c3c2=O)c2scc(C(=O)O)c2n1 [compound 962] | < 50 | 3.15 |
| Cc1cc(-c2cc(Cl)ccc2OCCn2c(C)nc3cc(C(F)(F)F)c(-c4nc(C)ncc4F)c(C#N)c3c2=O)c2scc(C(=O)O)c2n1 [compound 964] | < 50 | 3.32 |
| Cc1cc(C)nc(-c2c(C(F)(F)F)cc3nc(C)n(CCOc4ccc(Cl)cc4-c4cc(C)nc5c(C(=O)O)csc45)c(=O)c3c2C#N)n1 [compound 965] | 50 to 1000 | 118 |
| Cc1cc(-c2cc(Cl)ccc2OCCn2c(C)nc3cc(C(F)(F)F)c(-c4ncc(F)cn4)c(C#N)c3c2=O)c2scc(C(=O)O)c2n1 [compound 966] | < 50 | 3.58 |
| Cc1cnc(C)c(-c2c(C(F)(F)F)cc3nc(C)n(CCOc4ccc(Cl)cc4-c4cc(C)nc5c(C(=O)O)csc45)c(=O)c3c2C#N)n1 [compound 968] | < 50 | 8.95 |

The remaining lines, values ahead:

| IC50 [1] [nM] | IC50 [2] [nM] | SMILES |
| --- | --- | --- |
| < 50 | 17.7 | Cc1cc(-c2cc(Cl)ccc2OCCn2c(C)nc3cc(Cl)c(N4CCC(F)(F)CC4)c(C#N)c3c2=O)c2scc(C(=O)O)c2n1 [compound 919] |
| 50 to 1000 | 69.6 | Cc1cc(-c2cc(Cl)ccc2OCCn2c(C)nc3cc(F)c(-c4cnc(C)s4)c(C#N)c3c2=O)c2scc(C(=O)O)c2n1 [compound 921] |
| 50 to 1000 | 89.4 | Cc1nc2cnc(C3CC3)c(C#N)c2c(=O)n1CCOc1ccc(Cl)cc1Sc1nc(C(=O)O)cs1 [compound 922] |
| < 50 | 18.3 | Cc1cc(-c2cc(Cl)ccc2OCCn2c(C)nc3c(C)nc(-c4ccc(C(F)(F)F)cc4)c(C#N)c3c2=O)c2scc(C(=O)O)c2n1 [compound 926] |
| < 50 | 6.34 | Cc1cc(-c2cc(Cl)ccc2OCCn2c(C)nc3c(C)nc(-c4cc(F)ccc4C)c(C#N)c3c2=O)c2scc(C(=O)O)c2n1 [compound 927] |
| < 50 | 38.7 | Cc1cc(-c2cc(Cl)ccc2OCCn2c(C)nc3cnc(C4CC(F)(F)C4)c(C#N)c3c2=O)c2scc(C(=O)O)c2n1 [compound 928] |
| < 50 | 22.5 | Cc1cc(-c2cc(Cl)ccc2OCCn2c(C)nc3cnc(C4CCCC4(F)F)c(C#N)c3c2=O)c2scc(C(=O)O)c2n1 (stereo not shown) [compound 929] |
| < 50 | 13.7 | Cc1cc(-c2cc(Cl)ccc2OCCn2c(C)nc3cnc(C4CCCC(F)(F)C4)c(C#N)c3c2=O)c2scc(C(=O)O)c2n1 (stereo not shown) [compound 931] |
| < 50 | 13.6 | Cc1cc(-c2c(C(F)(F)F)cc3nc(C)n(CCOc4ccc(Cl)cc4-c4cc(C)nc5c(C(=O)O)csc45)c(=O)c3c2C#N)cc(CF)n1 [compound 934] |
| < 50 | 2.44 | Cc1cc(-c2cc(Cl)ccc2OCCn2c(C)nc3cc(C(F)(F)F)c(C(C)(C)O)nc3c2=O)c2scc(C(=O)O)c2n1 [compound 938] |
| < 50 | 38.9 | Cc1cccc(-c2ncc3nc(C)n(CCOc4ccc(Cl)cc4-c4cc(C)nc5c(C(=O)O)csc45)c(=O)c3c2C#N)c1 [compound 945] |
| < 50 | 37.3 | Cc1cc(-c2cc(Cl)ccc2OCCn2c(C)nc3cnc(-c4ccc(Cl)cc4)c(C#N)c3c2=O)c2scc(C(=O)O)c2n1 [compound 949] |
| < 50 | 43.6 | Cc1cc(-c2cc(Cl)ccc2OCCn2c(C)nc3cnc(-c4cccc(C(F)(F)F)c4)c(C#N)c3c2=O)c2scc(C(=O)O)c2n1 [compound 951] |
| < 50 | 16.5 | Cc1cc(-c2cc(Cl)ccc2OCCn2c(C)nc3cc(Cl)c(NC(C)(C)C)c(C#N)c3c2=O)c2scc(C(=O)O)c2n1 [compound 956] |
| < 50 | 7.84 | Cc1cc(-c2c(C(F)(F)F)cc3nc(C)n(CCOc4ccc(Cl)cc4-c4cc(C)nc5c(C(=O)O)csc45)c(=O)c3c2C#N)nc(C)n1 [compound 963] |
| < 50 | 12.2 | Cc1ccc(-c2c(C(F)(F)F)cc3nc(C)n(CCOc4ccc(Cl)cc4-c4cc(C)nc5c(C(=O)O)csc45)c(=O)c3c2C#N)nn1 [compound 967] |
| < 50 | 5.56 | Cc1cc(-c2cc(Cl)ccc2OCCn2c(C)nc3cc(C(F)(F)F)c(-c4cnc(C)c(C)n4)c(C#N)c3c2=O)c2scc(C(=O)O)c2n1 [compound 969] |
